Experiments:
Wistar rats [1] = test: Cotton pellet granuloma (sub acute model); format: in vivo, rat; settings: BN compounds 100 mg/kg, Indomethacin 5 mg/kg, daily for 7 days
Procedure: Wistar rats weighing between 180-220 gms were anaesthetized with ether. The skin at their back was shaved and disinfected with 70% alcohol according to D'Arcy et al., 1960). An incision was made in the lumbar region. Using a blunt forceps subcutaneous tunnel was formed and a sterilized cotton pellet was placed on both sides in scapular region. Standard 20 mg cotton pellets was weighed and sterilized for the study. Rats were grouped into 5 groups of 6 animals each. […] On 8th day rats in all groups were sacrificed with anesthetic ether. Pellets were removed and kept overnight for incubation at 37° C. Then pellets were dried at 60° C. until they reach constant weight. The wet weight of pellets was also recorded after sacrificing. The average weights of pellets of control group and other treated groups were calculated. The percent change of granuloma weight was calculated for all the test groups comparing with control group.

TNF-α [2] = test: In vitro TNF-α estimation in LPS treated RAW 264.7 macrophages (ELISA); format: cell-based, mouse
Procedure: Cell Culture and Treatment: The RAW 264.7 (mouse macrophages, national center for cellular sciences) cells were grown in plastic T-25 culture flask in Dulbeccos modified eagles medium (DMEM) without phenol red supplemented with 10% heat activated serum (heating at 57° C. for 30 minutes, 100 μg per ml penicillin, 200 μg per ml streptomycin, 2 mmol L-glutamine, 1% antibiotic/Anti mycotic solution (GIBCO/SRL) under 5% co2 with 85% relative humidity at 37° C. After 2-3 days cells were removed from the culture flask by tripsinizing the cells with Trypsin EDTA solution. Cell count and viability was performed using a standard Trypan blue dye exclusion method. The cell concentration was adjusted to 1×10^5 cells per ml in each well with the same media in the 12 well plates. After 24 hrs incubation the media was removed from each well replaced with a fresh one containing different concentrations (50 μg, 25 μg, 12.5 μg) of the synthetic compounds BN-4, BN-14 and BN-16 along with 10 μg/ml LPS, where as normal control (PBS) and positive controls (Dexa, Roli) LPS (10 μg/ml), were added. 200 μl of media from each well was collected at 6 hrs for the estimation of TNF-α and after 24 hrs for Nitric Oxide respectively. The adherent cells, which remained after removing the media was subjected to […] for determining the cytotoxicity of compounds at selected concentrations
Measurement of TNF-α: TNF-α was assayed by ELISA kit supplied by R&D systems. A volume of 100 μl of 0.8 μg per ml, goat anti mouse TNF-a in PBS was coated and incubated overnight at room temperature. Plates were washed 3 times with PBS/0.05% Tween 20 and blocked by the addition of 1% BSA in PBS at room temperature for 2 hrs. Plates were washed 3 times again with same buffer and 100 μl of samples and standards (Recombinant mouse TNF-α with 1% BSA in PBS) of different concentrations were added in triplicates and incubated for 2 hrs at RT. After washing 100 μl of goat anti mouse TNF-α conjugated with HRP were added and incubated for 2 hrs at RT. Then 100 μl of TMB substrate ([…] with H2O2) was added to all wells. After 20 min stop solution was added to all the wells, and measured the optical density at 450 nm. TNF-α concentration was calculated from standard curve by regression analysis.

Wistar rats [3] = test: Freund's complete adjuvant (FCA) induced arthritis; format: in vivo, rat; settings: BN compounds 100 mg/kg; for Body weight index, 21st DAY / Body weight index, 1st DAY: FCA study; for Paw volume, 5th Day / Paw volume, 12th Day / Paw volume, 18th Day / Paw volume, 21st Day: in mL (unit assumed); for Body weight index, 1st DAY: indomethacin 2.5 mg/kg; for Total WBC count: termination day, FCA model, Indomethacin 2.5 mg/kg
Procedure: Induction of Arthritis: Arthritis was induced by injecting Freund's complete adjuvant (FCA. Required quantity of FCA was weighed and suspension made with paraffin oil (DIFCO Laboratories) and administered at dose of 0.5 mg/rat in subplantar region of the right hind paw. After 7 days, a booster injection was given to all animals to hind paws.
Experimental Design Animals were divided into 6 groups of 6 rats each and were designated as:
(§1) Group I—Normal Control; Group II—Arthritic control; Group III—Arthritic rats administered with Synthetic compound BN-4; Group IV—arthritic rats administered with compound BN-14; Group V—arthritic rats administered with BN-16; Group VI—arthritic rats administered with standard drug indomethacin. Administration of test compounds and indomethacin started on the same day of adjuvant injection at the dose of 100 and 2.5 mg/kg respectively. The test and indomethacin doses continued up to 21 days in FCA induced model and 24 days in collagen induced model. During the study period the paw volumes were measured on 5th, 12th, 18th and 21 st days and the weight of the animals was also recorded at different time intervals. At each time point the percentage of inhibition of paw volume was calculated with reference to mean paw volume of control group In FCA model, animals were sacrificed on 21st day by cervical dislocation. Before sacrificing the animals, blood was collected and used for estimation of total leukocyte count, TNF-α and IL-1β.
Clinical Assessment of Adjuvant arthritis: Rats were examined for visual appearance of arthritis and the lesion of erythema and inflammation of periarticular tissues on 14th day, 18th day and on 21st day. Arthritis scoring scale as follows:
2=Mild swelling and erythema of the limb 3=Gross swelling and erythema of the limb 4=Gross deformity and inability to use the limb
The arthritis score of each rat was the sum of the scores of both hind limbs and maximum score was being 8 for each rat.

IL-1β = IL-1β in rat paw tissue and serum, FCA model (ELISA); format: in vivo; design: % Inhibition (IL-1 Beta) / Percentage of Inhibition (IL-1 Beta): concentration or dose not given beside the values; settings: for % Inhibition (IL-1 Beta): FCA model
Procedure: as §1
In FCA induced study paw tissues were collected on termination day and estimated TNF-α and IL-1β levels for all the groups by ELISA method.
On termination day blood samples were collected and serum was used for the estimation of Both TNF-α and IL-1β levels in FCA and Collagen induced studies. Both the parameters were determined using ELISA kits. TNF-α could not be determined as their expression is very less in serum samples of the rats in the two models studied, where as IL-1β expression in serum was good. Daily treatment of synthetic compounds by oral administration was effective in reducing the serum IL-1β levels (P<0.01) when compared with arthritic control group.

TNF-α [4] = test: TNF-α in paw tissue, collagen induced arthritis; format: in vivo, rat; settings: collagen induced study, day 24, 100 mg/kg/day
Source text: It is believed that these proinflammatory cytokines help to propagate a local or systemic inflammatory process, and to induce biosynthesis and secretion of metalloproteinases (MMPs) and osteoclasts that critically contribute to degradation of extracellular matrix and erosion of bone respectively (Burger et al., 1998; Gravallese and Goldring, 2000; Smolen and Steiner, 2003).

[5] = 50 μg/ml, 25 μg/ml, 12.5 μg/ml with LPS 10 μg/ml, 6 hrs
[6] = paw tissue, termination day (21st day), BN compounds 100 mg/kg, indomethacin 2.5 mg/kg
[7] = rat serum, termination day, FCA induced arthritis

Structure (SMILES) | % Inhibition (granuloma dry weight) (Wistar rats [1]) [%] | % Inhibition (granuloma wet weight) (Wistar rats [1]) [%] | Granuloma Dry Weight (Wistar rats [1]) [mg] | Granuloma Wet Weight (Wistar rats [1]) [mg] | Inhibition of TNF-a production (TNF-α [2]; [5]) | % Of inhibition, 5th Day (Wistar rats [3]; indomethacin 2.5 mg/kg daily) [%] | % Of inhibition, 12th Day (Wistar rats [3]; indomethacin 2.5 mg/kg daily) [%] | Body weight index, 21st DAY (Wistar rats [3]; indomethacin 2.5 mg/kg daily) | Paw volume, 5th Day (Wistar rats [3]; indomethacin 2.5 mg/kg daily) | Paw volume, 12th Day (Wistar rats [3]; indomethacin 2.5 mg/kg daily) | Paw volume, 18th Day (Wistar rats [3]; indomethacin 2.5 mg/kg daily) | Paw volume, 21st Day (Wistar rats [3]; indomethacin 2.5 mg/kg daily) | Body weight index, 1st DAY (Wistar rats [3]) | Total WBC count (Wistar rats [3]) | IL-1 Beta concentration (IL-1β; [6]) | % Inhibition (IL-1 Beta) (IL-1β; paw tissue, termination day) [%] | IL-1 Beta concentration (IL-1β; [7]) | Percentage of Inhibition (IL-1 Beta) (IL-1β; [7]) [%] | Inhibition of TNF-α in paw tissues (TNF-α [4]) | other results
Cc1sc2nc3c(c(N)c2c1C)CCCCC3 [BN-4, 2,3-dimethyl-6,7,8,9-tetrahydro-5H-cyclohepta[b]thieno[3,2-e]pyridin-4-amine] | 28.42 ± 3.09 | 22.23 ± 1.20 | 83.33 ± 3.59 | 366.08 ± 3.50 | good inhibition | 36.41 ± 3.84 | 42.88 ± 8.45 | 199.87 ± 4.76 | 1.51 ± 0.09 | 1.42 ± 0.21 | 1.55 ± 0.20 | 1.63 ± 0.12 | 155.15 ± 3.1 | 18.53±1.36 | 92.07 ± 10.70 ng/gm of tissue | 33.59 ± 5.53 | 22.83 ± 9.93 Pg/ml of tissue | 29.28 ± 3.60 | more significant inhibition (p<0.01) | Inhibition of TNF-a production (TNF-α [2]; 12.5 μg/ml with LPS): not shown inhibition; % Of inhibition, 18th Day (Wistar rats [3]; indomethacin 2.5 mg/kg daily): 40.71 ± 7.59 %
Nc1c2c(nc3sc4c(c13)CCC4)CCCC2 [BN-14, 2,3,6,7,8,9-Hexahydro-1H-cyclopenta[4,5]thieno[2,3-b]quinolin-10-amine] | 25.48 ± 1.89 | 20.21 ± 0.58 | 86.75 ± 2.20 | 374.42 ± 4.69 | good inhibition | 19.47 ± 1.38 | 37.90 ± 4.12 | 201.51 ± 6.61 | 1.92 ± 0.03 | 1.54 ± 0.10 | 1.51 ± 0.14 | 1.40 ± 0.02 | 158.02 ± 2.51 | 19.70±0.66 | 113.0 ± 26.8 ng/gm of tissue | 38.49 ± 14.97 | 50.83 ± 6.11 Pg/ml of tissue | 22.17 ± 6.51 | more significant inhibition (p<0.01) | 
